Measured values as given in paper PMC10673995, “Discovery of a novel cardiac-specific myosin modulator using artificial intelligence-based virtual screening” (Nature Communications, 2023).
Where “and” joins values, the source holds several entries; their conditions need not be identical. Equal entries are not always repeated.

Experiments:
bovine cardiac myosin S1 = bovine cardiac myosin S1 (Bos taurus, UniProt Q9BE39); assay: mant-ATP chase single nucleotide turnover, myosin S1; details: for Representative Traces (mant-ATP chase, normalised signal): representative trace, sheet Figure 3a;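 on all read-outs here: 0.4 µM S1 preloaded with equimolar mant-ATP, chased by 2 mM ATP, mant fluorescence (ex 360, em 450 nm) read each second over 15 min at 25 °C, biexponential fit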
Chain of bovine cardiac myosin S1 (Q9BE39 85-778 limits assumed): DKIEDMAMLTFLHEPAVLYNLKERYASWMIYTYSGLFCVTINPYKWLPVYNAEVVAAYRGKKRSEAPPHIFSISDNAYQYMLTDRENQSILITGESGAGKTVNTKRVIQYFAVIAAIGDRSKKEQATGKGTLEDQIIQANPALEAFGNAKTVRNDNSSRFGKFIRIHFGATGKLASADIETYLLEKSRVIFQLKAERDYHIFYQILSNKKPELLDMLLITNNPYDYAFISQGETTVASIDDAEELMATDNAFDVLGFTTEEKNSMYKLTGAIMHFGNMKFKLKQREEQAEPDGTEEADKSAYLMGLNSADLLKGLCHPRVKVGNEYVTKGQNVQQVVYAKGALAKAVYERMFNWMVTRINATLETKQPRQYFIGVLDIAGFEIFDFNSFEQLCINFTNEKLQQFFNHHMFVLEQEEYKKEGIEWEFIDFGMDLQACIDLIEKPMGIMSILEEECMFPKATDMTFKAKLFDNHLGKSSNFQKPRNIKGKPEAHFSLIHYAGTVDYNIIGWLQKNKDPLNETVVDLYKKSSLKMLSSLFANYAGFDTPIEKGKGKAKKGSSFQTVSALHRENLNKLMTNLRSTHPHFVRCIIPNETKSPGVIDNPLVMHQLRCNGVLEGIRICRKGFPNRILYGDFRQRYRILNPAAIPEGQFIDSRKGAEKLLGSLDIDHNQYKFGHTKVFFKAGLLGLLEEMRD
Chain of bovine cardiac myosin S1 (P85100 whole entry partner): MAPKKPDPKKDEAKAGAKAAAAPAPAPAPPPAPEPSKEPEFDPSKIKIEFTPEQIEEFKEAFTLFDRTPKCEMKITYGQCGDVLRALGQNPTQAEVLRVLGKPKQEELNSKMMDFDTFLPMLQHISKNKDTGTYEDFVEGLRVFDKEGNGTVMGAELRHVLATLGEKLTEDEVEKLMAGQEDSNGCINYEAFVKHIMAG
Excerpt: Chase of mant-ATP loaded cardiac myosin S1 with ATP leads to a decrease in the mant fluorescence intensity which is best described by a bi-exponential decay function with an initial fast phase followed by a second slower phase, corresponding to the so-called disordered (DRX) and super-relaxed state (SRX) of myosin, respectively.

[1] = target: T1, synthetic thick filaments formed from purified full-length bovine β-cardiac myosin (Bos taurus, UniProt Q9BE39); assay: mant-ATP chase single nucleotide turnover, synthetic thick filaments; format: biochemical; details: for Representative Traces (mant-ATP chase, fluorescence signal over time): Figure 3b
T1 construct: diluting full-length bovine cardiac myosin stock into assay buffer; from tissue; host or cells: bovine cardiac muscle (the text says isolated/purified and describes no preparation)
T1 sequence (Q9BE39 whole entry): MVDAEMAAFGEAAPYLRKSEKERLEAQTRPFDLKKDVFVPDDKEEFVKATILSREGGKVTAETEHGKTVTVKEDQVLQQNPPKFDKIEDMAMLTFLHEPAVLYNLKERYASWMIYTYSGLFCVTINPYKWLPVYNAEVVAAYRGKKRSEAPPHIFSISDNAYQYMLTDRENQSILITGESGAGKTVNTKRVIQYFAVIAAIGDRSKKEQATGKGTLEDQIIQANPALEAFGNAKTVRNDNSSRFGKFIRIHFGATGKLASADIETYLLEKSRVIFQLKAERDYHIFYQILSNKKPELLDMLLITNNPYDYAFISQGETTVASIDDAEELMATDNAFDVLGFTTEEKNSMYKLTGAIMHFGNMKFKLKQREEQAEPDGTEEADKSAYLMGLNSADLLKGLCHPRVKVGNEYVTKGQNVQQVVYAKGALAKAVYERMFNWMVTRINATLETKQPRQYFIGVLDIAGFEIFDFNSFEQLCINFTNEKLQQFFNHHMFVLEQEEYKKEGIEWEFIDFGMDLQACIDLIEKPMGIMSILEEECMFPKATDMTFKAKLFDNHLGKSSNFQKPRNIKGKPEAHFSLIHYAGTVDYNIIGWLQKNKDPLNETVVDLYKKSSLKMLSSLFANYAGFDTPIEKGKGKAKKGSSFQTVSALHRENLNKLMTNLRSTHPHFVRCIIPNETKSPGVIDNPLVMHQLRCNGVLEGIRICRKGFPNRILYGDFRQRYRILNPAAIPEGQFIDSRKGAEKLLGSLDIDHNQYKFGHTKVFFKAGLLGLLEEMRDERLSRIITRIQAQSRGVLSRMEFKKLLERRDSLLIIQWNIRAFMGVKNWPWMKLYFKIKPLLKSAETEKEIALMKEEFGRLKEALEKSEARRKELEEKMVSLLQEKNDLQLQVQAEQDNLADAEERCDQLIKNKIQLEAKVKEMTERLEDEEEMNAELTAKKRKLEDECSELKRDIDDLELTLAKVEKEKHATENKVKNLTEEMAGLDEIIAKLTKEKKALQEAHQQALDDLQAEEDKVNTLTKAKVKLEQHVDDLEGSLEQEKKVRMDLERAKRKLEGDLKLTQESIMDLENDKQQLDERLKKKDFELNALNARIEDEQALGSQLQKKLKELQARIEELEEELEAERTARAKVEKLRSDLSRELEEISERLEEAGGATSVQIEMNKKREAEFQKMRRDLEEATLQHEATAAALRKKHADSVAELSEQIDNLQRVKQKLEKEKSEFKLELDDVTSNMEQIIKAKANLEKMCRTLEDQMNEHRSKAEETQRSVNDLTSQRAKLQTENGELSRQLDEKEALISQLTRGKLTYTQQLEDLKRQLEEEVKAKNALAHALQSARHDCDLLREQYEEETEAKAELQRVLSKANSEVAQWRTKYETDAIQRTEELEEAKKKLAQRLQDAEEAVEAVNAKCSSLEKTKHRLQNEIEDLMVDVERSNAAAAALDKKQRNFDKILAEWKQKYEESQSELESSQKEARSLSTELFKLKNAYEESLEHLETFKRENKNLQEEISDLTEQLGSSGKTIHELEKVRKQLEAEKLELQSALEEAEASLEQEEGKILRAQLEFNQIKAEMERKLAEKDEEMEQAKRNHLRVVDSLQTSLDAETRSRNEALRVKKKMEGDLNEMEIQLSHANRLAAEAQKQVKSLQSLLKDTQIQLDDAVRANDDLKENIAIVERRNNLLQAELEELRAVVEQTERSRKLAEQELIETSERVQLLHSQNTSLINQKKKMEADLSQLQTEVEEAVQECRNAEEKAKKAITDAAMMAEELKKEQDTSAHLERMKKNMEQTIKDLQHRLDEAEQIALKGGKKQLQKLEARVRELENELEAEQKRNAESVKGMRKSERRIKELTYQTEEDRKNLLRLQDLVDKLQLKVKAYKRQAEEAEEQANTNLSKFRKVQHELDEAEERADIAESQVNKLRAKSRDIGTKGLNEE
T1 sequence (P85100 whole entry partner): as the sequence (P85100 whole entry partner) above
T1 sequence (Q3SZE5 whole entry partner): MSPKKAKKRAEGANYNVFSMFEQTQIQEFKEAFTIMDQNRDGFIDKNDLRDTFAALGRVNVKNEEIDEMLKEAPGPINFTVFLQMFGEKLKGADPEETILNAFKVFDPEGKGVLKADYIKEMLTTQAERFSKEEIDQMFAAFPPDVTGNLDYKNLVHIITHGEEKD
Excerpt: We used systems of increasing complexity ranging from the isolated cardiac myosin motor domains (Fig. 3a) to synthetic thick filaments formed from purified full-length bovine cardiac myosin (Fig. 3b) and bovine cardiac myofibrils as substrates in the chase assays (Fig. 3c). In contrast to the isolated myosin motors, synthetic thick filaments contain two myosin head domains per molecule connected via their coiled-coil tail.
Synthetic thick filaments were freshly prepared by diluting full-length bovine cardiac myosin stock into assay buffer (composition in mmol L^−1: 15 PIPES pH 7, 5 MgCl2, 1 DTT) and incubation on ice for 2 h. Bovine myosin S1 and synthetic thick filament concentrations were adjusted to 0.4 μmol L^−1 with assay buffer and 40 μL aliquoted into individual wells of a black 384-well plate (Greiner). Mant-ATP (JenaBioscience) was added to each well to a final concentration of 0.4 μmol L^−1 using an automated injector unit in a ClarioStar Plate Reader (BMG LabTech) and the system was allowed to age for 1 min. The chase phase was started by adding a final concentration of 2 mmol L^−1 ATP using a second automated injector unit. Fluorescence intensity from each well was constantly measured for 15 min every 1 sec at 25 °C with the following settings: excitation at 360 nm with a 20 nm bandwidth and emission at 450 nm with a 20 nm bandwidth. For experiments with cardiac myofibrils the concentration was adjusted to 1 mg m L^−1, and the mant-ATP and ATP concentrations were increased to 20 μmol L^−1 and 20 mmol L^−1, respectively.

[2] = Beta-cardiac myosin S1, individual replicates
[3] = Synthetic Myosin Filaments, individual replicates

Structure (SMILES): CCc1cc2c(=O)n(NC(=S)NC(C)C)cnc2s1 [F10]
- kslow (bovine cardiac myosin S1; 2 μmol L^-1 Mavacamten or 20 μmol L^-1 F10, control 0.0058 ± 0.0010): 0.0014 ± 0.0002 s⁻¹
- kfast (bovine cardiac myosin S1; [2]): 0.05055 s⁻¹ and 0.0447 s⁻¹ and 0.0368 s⁻¹ and 0.05306 s⁻¹ and 0.06378 s⁻¹ and 0.02378 s⁻¹
- kslow (bovine cardiac myosin S1; [2]): 0.0006967 s⁻¹ and 0.00183 s⁻¹ and 0.001814 s⁻¹ and 0.000778 s⁻¹ and 0.001483 s⁻¹ and 0.001764 s⁻¹
- slow phase (bovine cardiac myosin S1; [2]): 77.15% and 78.62% and 63.91% and 49.91% and 65.48% and 83.8%
- Representative Traces, normalised fluorescence (bovine cardiac myosin S1; t 396 s): 0.3381
- Representative Traces, normalised fluorescence (bovine cardiac myosin S1; t 397 s): 0.3913
- Representative Traces, normalised fluorescence (bovine cardiac myosin S1; t 398 s): 0.3527
- Representative Traces, normalised fluorescence (bovine cardiac myosin S1; t 399 s): 0.3731
- Representative Traces, normalised fluorescence (bovine cardiac myosin S1; t 400 s): 0.3893
- Representative Traces, normalised fluorescence (bovine cardiac myosin S1; t 401 s): 0.3649
- Representative Traces, normalised fluorescence (bovine cardiac myosin S1; t 402 s): 0.346
- Representative Traces, normalised fluorescence (bovine cardiac myosin S1; t 403 s): 0.3664
- Representative Traces, normalised fluorescence (bovine cardiac myosin S1; t 404 s): 0.3754
- Representative Traces, normalised fluorescence (bovine cardiac myosin S1; t 405 s): 0.395
- Representative Traces, normalised fluorescence (bovine cardiac myosin S1; t 406 s): 0.3542
- Representative Traces, normalised fluorescence (bovine cardiac myosin S1; t 407 s): 0.3529
- Representative Traces, normalised fluorescence (bovine cardiac myosin S1; t 408 s): 0.371
- Representative Traces, normalised fluorescence (bovine cardiac myosin S1; t 409 s): 0.3805
- Representative Traces, normalised fluorescence (bovine cardiac myosin S1; t 410 s): 0.3829
- Representative Traces, normalised fluorescence (bovine cardiac myosin S1; t 411 s): 0.3594
- Representative Traces, normalised fluorescence (bovine cardiac myosin S1; t 412 s): 0.3318
- Representative Traces, normalised fluorescence (bovine cardiac myosin S1; t 413 s): 0.3454
- Representative Traces, normalised fluorescence (bovine cardiac myosin S1; t 414 s): 0.3732
- Representative Traces, normalised fluorescence (bovine cardiac myosin S1; t 415 s): 0.3239
- Representative Traces, normalised fluorescence (bovine cardiac myosin S1; t 416 s): 0.3536
- Representative Traces, normalised fluorescence (bovine cardiac myosin S1; t 417 s): 0.3763
- Representative Traces, normalised fluorescence (bovine cardiac myosin S1; t 418 s): 0.4062
- Representative Traces, normalised fluorescence (bovine cardiac myosin S1; t 419 s): 0.3409
- Representative Traces, normalised fluorescence (bovine cardiac myosin S1; t 420 s): 0.3417
- Representative Traces, normalised fluorescence (bovine cardiac myosin S1; t 421 s): 0.3218
- Representative Traces, normalised fluorescence (bovine cardiac myosin S1; t 422 s): 0.3761
- Representative Traces, normalised fluorescence (bovine cardiac myosin S1; t 423 s): 0.3809
- Representative Traces, normalised fluorescence (bovine cardiac myosin S1; t 424 s): 0.3886
- Representative Traces, normalised fluorescence (bovine cardiac myosin S1; t 425 s): 0.4176
- Representative Traces, normalised fluorescence (bovine cardiac myosin S1; t 426 s): 0.3716
- Representative Traces, normalised fluorescence (bovine cardiac myosin S1; t 427 s): 0.348
- Representative Traces, normalised fluorescence (bovine cardiac myosin S1; t 428 s): 0.3822
- Representative Traces, normalised fluorescence (bovine cardiac myosin S1; t 429 s): 0.3572
- Representative Traces, normalised fluorescence (bovine cardiac myosin S1; t 430 s): 0.3286
- Representative Traces, normalised fluorescence (bovine cardiac myosin S1; t 431 s): 0.4152
- Representative Traces, normalised fluorescence (bovine cardiac myosin S1; t 432 s): 0.3207
- Representative Traces, normalised fluorescence (bovine cardiac myosin S1; t 433 s): 0.376
- Representative Traces, normalised fluorescence (bovine cardiac myosin S1; t 434 s): 0.351
- Representative Traces, normalised fluorescence (bovine cardiac myosin S1; t 435 s): 0.3814
- Representative Traces, normalised fluorescence (bovine cardiac myosin S1; t 436 s): 0.3747
- Representative Traces, normalised fluorescence (bovine cardiac myosin S1; t 437 s): 0.339
- Representative Traces, normalised fluorescence (bovine cardiac myosin S1; t 438 s): 0.3394
- Representative Traces, normalised fluorescence (bovine cardiac myosin S1; t 439 s): 0.2828
- Representative Traces, normalised fluorescence (bovine cardiac myosin S1; t 440 s): 0.3588
- Representative Traces, normalised fluorescence (bovine cardiac myosin S1; t 441 s): 0.3824
- Representative Traces, normalised fluorescence (bovine cardiac myosin S1; t 442 s): 0.3473
- Representative Traces, normalised fluorescence (bovine cardiac myosin S1; t 443 s): 0.3776
- Representative Traces, normalised fluorescence (bovine cardiac myosin S1; t 444 s): 0.2942
- Representative Traces, normalised fluorescence (bovine cardiac myosin S1; t 445 s): 0.3451
- Representative Traces, normalised fluorescence (bovine cardiac myosin S1; t 446 s): 0.3599
- Representative Traces, normalised fluorescence (bovine cardiac myosin S1; t 447 s): 0.3632
- Representative Traces, normalised fluorescence (bovine cardiac myosin S1; t 448 s): 0.3962
- Representative Traces, normalised fluorescence (bovine cardiac myosin S1; t 449 s): 0.3522
- Representative Traces, normalised fluorescence (bovine cardiac myosin S1; t 450 s): 0.334
- Representative Traces, normalised fluorescence (bovine cardiac myosin S1; t 451 s): 0.3312
- Representative Traces, normalised fluorescence (bovine cardiac myosin S1; t 452 s): 0.3355
- Representative Traces, normalised fluorescence (bovine cardiac myosin S1; t 453 s): 0.3202
- Representative Traces, normalised fluorescence (bovine cardiac myosin S1; t 454 s): 0.3011
- Representative Traces, normalised fluorescence (bovine cardiac myosin S1; t 455 s): 0.3492
- Representative Traces, normalised fluorescence (bovine cardiac myosin S1; t 456 s): 0.2942
- Representative Traces, normalised fluorescence (bovine cardiac myosin S1; t 457 s): 0.3901
- Representative Traces, normalised fluorescence (bovine cardiac myosin S1; t 458 s): 0.3305
- Representative Traces, normalised fluorescence (bovine cardiac myosin S1; t 459 s): 0.3712
- Representative Traces, normalised fluorescence (bovine cardiac myosin S1; t 460 s): 0.3492
- Representative Traces, normalised fluorescence (bovine cardiac myosin S1; t 461 s): 0.3691
- Representative Traces, normalised fluorescence (bovine cardiac myosin S1; t 462 s): 0.3499
- Representative Traces, normalised fluorescence (bovine cardiac myosin S1; t 463 s): 0.3959
- Representative Traces, normalised fluorescence (bovine cardiac myosin S1; t 464 s): 0.3352
- Representative Traces, normalised fluorescence (bovine cardiac myosin S1; t 465 s): 0.2964
- Representative Traces, normalised fluorescence (bovine cardiac myosin S1; t 466 s): 0.3332
- Representative Traces, normalised fluorescence (bovine cardiac myosin S1; t 467 s): 0.3397
- Representative Traces, normalised fluorescence (bovine cardiac myosin S1; t 468 s): 0.2957
- Representative Traces, normalised fluorescence (bovine cardiac myosin S1; t 469 s): 0.3164
- Representative Traces, normalised fluorescence (bovine cardiac myosin S1; t 470 s): 0.3318
- Representative Traces, normalised fluorescence (bovine cardiac myosin S1; t 471 s): 0.303
- Representative Traces, normalised fluorescence (bovine cardiac myosin S1; t 472 s): 0.2843
- Representative Traces, normalised fluorescence (bovine cardiac myosin S1; t 473 s): 0.3488
- Representative Traces, normalised fluorescence (bovine cardiac myosin S1; t 474 s): 0.3514
- Representative Traces, normalised fluorescence (bovine cardiac myosin S1; t 475 s): 0.3348
- Representative Traces, normalised fluorescence (bovine cardiac myosin S1; t 476 s): 0.2621
- Representative Traces, normalised fluorescence (bovine cardiac myosin S1; t 477 s): 0.3016
- Representative Traces, normalised fluorescence (bovine cardiac myosin S1; t 478 s): 0.2808
- Representative Traces, normalised fluorescence (bovine cardiac myosin S1; t 479 s): 0.2939
- Representative Traces, normalised fluorescence (bovine cardiac myosin S1; t 480 s): 0.3383
- Representative Traces, normalised fluorescence (bovine cardiac myosin S1; t 481 s): 0.3502
- Representative Traces, normalised fluorescence (bovine cardiac myosin S1; t 482 s): 0.3436
- Representative Traces, normalised fluorescence (bovine cardiac myosin S1; t 483 s): 0.4051
- Representative Traces, normalised fluorescence (bovine cardiac myosin S1; t 484 s): 0.3367
- Representative Traces, normalised fluorescence (bovine cardiac myosin S1; t 485 s): 0.376
- Representative Traces, normalised fluorescence (bovine cardiac myosin S1; t 486 s): 0.3528
- Representative Traces, normalised fluorescence (bovine cardiac myosin S1; t 487 s): 0.3472
- Representative Traces, normalised fluorescence (bovine cardiac myosin S1; t 488 s): 0.3853
- Representative Traces, normalised fluorescence (bovine cardiac myosin S1; t 489 s): 0.3935
- Representative Traces, normalised fluorescence (bovine cardiac myosin S1; t 490 s): 0.3358
- Representative Traces, normalised fluorescence (bovine cardiac myosin S1; t 491 s): 0.3169
- Representative Traces, normalised fluorescence (bovine cardiac myosin S1; t 492 s): 0.3123
- Representative Traces, normalised fluorescence (bovine cardiac myosin S1; t 493 s): 0.2845
- Representative Traces, normalised fluorescence (bovine cardiac myosin S1; t 494 s): 0.2849
- Representative Traces, normalised fluorescence (bovine cardiac myosin S1; t 495 s): 0.3259
- Representative Traces (mant-ATP chase, normalised signal) (bovine cardiac myosin S1; t = 796 s): 0.1783
- Representative Traces (mant-ATP chase, normalised signal) (bovine cardiac myosin S1; t = 797 s): 0.1159
- effect on the rate of the fast DRX phase [1]: no effect
- Bar graph (Figure 3b, mant-ATP chase) ([1]; Figure 3b source data, individual replicate values): 60.72 and 53.1 and 55.77 and 61 and 84.67 and 56.52 and 70.86
- Representative Traces (mant-ATP chase, fluorescence signal over time) ([1]; t = 796 s): 0.1829
- Representative Traces (mant-ATP chase, fluorescence signal over time) ([1]; t = 797 s): 0.2272
- kfast [1, 3]: 0.05914 s⁻¹ and 0.02268 s⁻¹ and 0.03788 s⁻¹ and 0.03196 s⁻¹ and 0.0963 s⁻¹ and 0.1619 s⁻¹
- kslow [1, 3]: 0.004733 s⁻¹ and 0.003729 s⁻¹ and 0.003941 s⁻¹ and 0.001622 s⁻¹ and 0.001835 s⁻¹ and 0.001574 s⁻¹
- slow phase [1, 3]: 53.1% and 55.77% and 61% and 84.67% and 56.52% and 70.86%
- kslow ([1]; control 0.0046 ± 0.0007): 0.0027 ± 0.0005 s⁻¹
- Slow Phase [%] (SRX amplitude) ([1]; control 22.9 ± 2.8): 63.2 ± 4.2% and ~63%
- kfast ([1]; control […]): 0.0784 ± 0.0208 s⁻¹
